Here are results for 63 compounds from a melting point compilation (Tetko et al.; mined from patent text by program, amines drawn as free bases though some values may be those of a salt).

In the case of `COC(=O)c1cncc(-c2ccc(OC)c(N)c2)c1`, the melting point is 98 to 99 °C.

In turn, `COc1cc(N(C)C)c(Cl)cc1C(=O)NCC1CN(CCCOc2ccc(Cl)cc2)CCO1` (stereo not drawn) displayed a melting point of 128 to 130 °C.

In turn, `CCCN1CCC(O)(c2cc(F)cc(F)c2)C1` (stereo not drawn) returned a melting point of 117 to 118 °C.

In turn, `O=C(O)COc1cccc2c1CC(S(=O)(=O)Cc1ccccc1)c1sc(-c3ccc(F)cc3)nc1-2` (stereo not drawn) showed a melting point of 210 to 211 °C.

Regarding `CCC(O)CN1CCC(C)C(c2ccc(Cl)cc2)=N1` (stereo not drawn), the melting point lay within 90.5 to 91.5 °C.

`C#CCN(C)c1nccc(Oc2ccc(NC(=O)c3cc(F)cc(N4CCOCC4)c3)c3ccccc23)n1` displayed a melting point of 97 to 98 °C.

As to `COC(=O)CS(=O)C(C)c1ccc(-c2ccccc2F)cc1` (stereo not drawn), the melting point was 79 °C.

`CCOC(=O)C(=C(c1ccc(F)cc1)c1ccc(F)cc1)n1nnnc1C` showed a melting point of 103 to 104 °C.

For the compound `COc1cc(C(C)=O)ccc1OCCCN1CCC(c2noc3ccccc23)CC1`, the melting point was 102 to 104 °C.

Consider `CCOC(=O)C(C)(C)c1nc2ccc(OCCCN3CCC(OC(c4ccccc4)c4ccccc4)CC3)nn2c1Cl`, for which the melting point fell in the range of 186 to 188 °C.

`COc1cc(Nc2c(C#N)cnc3cc(C#CCCN(C)C)c(OC)cc23)c(Cl)cc1Cl`: the melting point lay within 177 to 179 °C.

In turn, `Nc1nc(N)c2ncn(CCC(CO)CO)c2n1` came in with a melting point of 187 to 190 °C.

In turn, `COc1cc(C=CC=NO)ccc1OC(C)=O` had a melting point of 72 to 74 °C.

`CC(=O)NCCc1coc2ccc3c(c12)CCCO3` gave a melting point of 162 °C.

In turn, `CC(=O)c1cccc(-c2ccc(O)cc2)c1` returned a melting point of 146 to 149 °C.

`OCCOc1ccc(Nc2cc(Nc3ccccc3F)ncn2)cc1` had a melting point of 163 to 166 °C.

Regarding `CCCCCCCCCCCCCCCCSCC(CO)NC(=O)OC` (stereo not drawn), the melting point is 55 to 56 °C.

Regarding `Oc1ccc(Oc2cnc3cc(F)ccc3n2)cc1`, the melting point fell in the range of 78 to 79 °C.

In the case of `COCCOC(=O)C1=C(C)NC(C)=C(C(=O)OCC(F)(F)F)C1c1cccc([N+](=O)[O-])c1` (stereo not drawn), the melting point worked out at 169 °C.

In turn, `O=C(OCc1ccccc1)C1C(Sc2ccccc2)CC2CC(=O)N21` (stereo not drawn) returned a melting point of 84 to 85 °C.

Consider `Cc1ccc(S(=O)(=O)OCC2Cc3cccc(-c4cc(C(F)(F)F)cc(C(F)(F)F)c4)c3O2)cc1` (stereo not drawn), for which the melting point was in the range of 100 to 105 °C.

Turning to `CCOC(=O)C=C(C(=O)OCC)c1ccc(C(Br)Br)cc1`, the melting point was in the range of 89 to 92.5 °C.

`O=C1CN=C(c2ccccc2F)c2cc(Cl)ccc2N1CC(O)CO` (stereo not drawn) had a melting point of 117 to 118 °C.

For the compound `CCOC(=O)C(C)Oc1ccc(Oc2nc3ccc(Cl)cc3cc2Cl)cc1` (stereo not drawn), the melting point was 70 °C.

The compound `Fc1ccc(-c2ccn(C3CCNCC3)c2-c2ccncc2)cc1` gave a melting point of 191 to 192 °C.

`COC(=O)C=Cc1cn(Cc2ccc(C(=O)OC(C)(C)C)cc2OC)c2cc(C(=O)NCC3CCCC3)ccc12`: the melting point fell in the range of 163 to 164 °C.

The compound `Cc1ccc(NC(=O)Nc2cc(C(C)(C)C)sc2CNC(=O)CN)cc1` came in with a melting point of 93 to 96 °C.

`CC(=NN=c1[nH]cccc1Cl)C(F)(F)F`: the melting point fell in the range of 64 to 64.5 °C.

`Cn1ncnc1COc1nn2c(-c3ccccc3F)nnc2cc1-c1cccs1` showed a melting point of 189 to 190 °C.

In turn, `CCCc1c(OCCCOc2ccc(O)cc2)ccc2c1OC(CCC(=O)O)(CCC(=O)O)CC2=O` yielded a melting point of 160 to 166 °C.

Compound `COc1cc(N2C(=O)c3ccccc3C2=O)ccc1-c1ccc(Cl)s1` yielded a melting point of 194 to 195 °C.

For `CCOC(=O)c1cn(-c2ccc(C(F)(F)F)cn2)nc1C1CCCCC1`, the melting point was 99 to 100 °C.

Take `CCNC(=O)c1cnn(-c2ccccc2)c1Br`: the melting point lay in the range of 158 to 160 °C.

Compound `O=C(Nc1ccc2[nH]c(=O)[nH]c2c1)C(=O)N1CCC(Cc2ccc(F)cc2)CC1` showed a melting point of more than 260 °C.

The compound `COC(=O)C1=CC(=O)CC(c2ccc(Cl)c(OC)c2F)N1` (stereo not drawn) yielded a melting point of 165 to 166 °C.

For the compound `CCCCCCCCOc1cc(-c2cccc(Cl)c2)c(OCC(=O)O)c(-c2cccc(Cl)c2)c1`, the melting point was 113 to 116 °C.

`Cc1sc2[nH]c(=O)c(=O)[nH]c2c1C` returned a melting point of more than 300 °C.

Compound `CCCc1c(OCCCOc2cc(O)c(-c3cocn3)cc2CC)cccc1Oc1ccccc1C(=O)O` came in with a melting point of 60 to 61 °C.

`CNCCN(C)C(=O)OC(Cc1ccccc1)C(=O)N(C)C(Cc1c[nH]cn1)C(=O)NC(CC1CCCCC1)C(O)CCC(C)C` (stereo not drawn) came in with a melting point of 65 to 68 °C.

With `Cc1cc2c(cc1Br)C(=O)CC(C)(C)O2`, the melting point lay in the range of 95 to 96 °C.

Take `O=C1NC(=O)C(Cc2ccc(OCCOc3ccccc3)cc2)S1` (stereo not drawn): the melting point was found to be 133 °C.

For `CN1C(=O)N(c2ccc(Cl)cc2)S(=O)(=O)c2ccc(O)cc21`, the melting point was more than 250 °C.

Compound `Cc1cc(COC2CCCCO2)nc(N)n1` (stereo not drawn) displayed a melting point of 109 to 110 °C.

Compound `COC(=O)c1cc(C(=O)Cl)cc([N+](=O)[O-])c1` registered a melting point of 66 to 68 °C.

In turn, `CCN1CNS(=O)(=O)c2sc(Cl)cc21` returned a melting point of 119 to 120 °C.

`C=CCc1cc(C2=NNC(=O)CC2)ccc1O`: the melting point fell in the range of 240 to 244 °C.

`Cn1cncc1-c1c(C(CC#N)c2ccc(Cl)cc2)ccc2c1c(-c1cccc(Cl)c1)cc(=O)n2C` (stereo not drawn) returned a melting point of 151 °C.

Consider `O=C(O)c1ccc(C=C(C(=O)C2CC2)C(=O)C2CC2)cc1`, for which the melting point lay within 175 to 178 °C.

Compound `CCCCNC(=O)C1CC(C)(C)NC(C)(C)C1=NO` (stereo not drawn) showed a melting point of 58 to 60 °C.

In turn, `Cc1cccc(NC(=O)NC2N=C(C(C)C)c3cccc(C)c3N(CC(=O)N3CCCCCCC3)C2=O)c1` (stereo not drawn) gave a melting point of 132 to 133 °C.

`COc1ccc2c(c1)sc1c(C(=O)Nc3nnn[nH]3)cnc(=O)n12` gave a melting point of 234 to 235 °C.

Compound `CC(C)(C)OC(=O)Nc1cc(NCCO)c(I)cc1[N+](=O)[O-]` showed a melting point of 130 to 148 °C.

On to `COC(=O)C1=C(C)NC(CC(=O)N2CCN(C3Cc4ccccc4C3)CC2)=C(C(=O)OC)C1c1c(Cl)cccc1Cl` (stereo not drawn), for which the melting point fell in the range of 190 to 200 °C.

For `CC(=O)Nc1ccc(S(=O)(=O)NCCN2[C@H](C)Cc3ccsc3[C@@H]2C)cc1` (relative stereo), the melting point fell in the range of 142 to 144 °C.

`CN1CCC23c4c5ccc(O[Si](C)(C)C(C)(C)C)c4OC2C(O[Si](C)(C)C(C)(C)C)C=CC3C1C5` (stereo not drawn) showed a melting point of 118 to 119 °C.

As to `Nc1c(O)cc2c(c1[N+](=O)[O-])CCC2`, the melting point was 196 to 198 °C.

`O=C(Cn1nnnc1S)NO` showed a melting point of 105 to 107 °C.

Turning to `Cc1[nH]c2ccccc2c1[C@H]1CC[C@@H](N2CCN(c3cccc4[nH]ccc34)CC2)CC1`, the melting point fell in the range of 279 to 280 °C.

`FC(F)C(F)(F)Sc1nc(-c2ccc(Cl)cc2)c(-c2cccs2)[nH]1`: the melting point lay within 162 to 163 °C.

In turn, `CC(=O)N[C@H]1CC[C@H](CCN2CCN(c3nccc4c3OCC4)CC2)CC1` registered a melting point of 195 °C.

In turn, `COc1ccc(CC(=O)NCCc2ccc([N+](=O)[O-])cc2)cc1` came in with a melting point of 109 to 110 °C.

In the case of `COc1ccc(Cc2oc3ccc(O)cc3c2C)cc1`, the melting point was in the range of 128 to 131 °C.

In turn, `O=C(C=Cc1cccc(NC(=O)C=Cc2ccccc2)c1)NO` came in with a melting point of 178 °C.

The melting point is the temperature, or range, at which the solid turns liquid.
